Broadly, the Emax is the size of the effect at its maximum, as opposed to the concentration needed.

The structures appear in SMILES notation. Where only a bound is given, the exact number is not on record here.

This note sets out measurements from patent US8263605B2, “Modulators of muscarinic receptors” (Vertex Pharmaceutical Incorporated, priority 2006, dated 2012).

For one experiment, the target named is T1, M4 muscarinic receptor (Homo sapiens, UniProt P08173).
T1 construct: expressed in transfected cells; host or cells: CHO (M4-CHO)
T1 sequence (P08173 1-479): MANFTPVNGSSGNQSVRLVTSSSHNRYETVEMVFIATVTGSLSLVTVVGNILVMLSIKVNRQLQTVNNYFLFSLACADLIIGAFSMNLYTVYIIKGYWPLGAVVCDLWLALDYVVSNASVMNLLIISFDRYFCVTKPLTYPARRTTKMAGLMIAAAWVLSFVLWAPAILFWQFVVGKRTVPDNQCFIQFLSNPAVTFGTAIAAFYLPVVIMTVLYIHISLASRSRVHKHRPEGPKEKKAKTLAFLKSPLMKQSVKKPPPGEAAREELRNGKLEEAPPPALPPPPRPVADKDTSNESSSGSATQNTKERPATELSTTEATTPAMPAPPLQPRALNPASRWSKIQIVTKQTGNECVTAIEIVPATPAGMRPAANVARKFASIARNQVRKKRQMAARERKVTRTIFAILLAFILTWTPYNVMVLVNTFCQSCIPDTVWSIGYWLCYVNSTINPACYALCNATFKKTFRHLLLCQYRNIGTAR
Description: Functional mobilization of intracellular calcium (FLIPR), M4-CHO cells. Conditions: for Emax: 100% efficacy is the maximum response obtained with the Carbachol control; for M4 Activity: CHO cells expressing M4, calcium mobilization. Format: cell-based. In short, it runs like this: (§1)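 Recombinant CHO cells loaded with Fluo-3 AM or Calcium 3 dye; fluorescence recorded 60 s on FLIPR in pH 7.4 buffer with 1 mM probenecid, 0.5% DMSO. Agonist mode: compound alone; antagonist mode: 15 min preincubation (or co-application) then carbachol at EC80. Efficacy relative to maximal carbachol response.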
(Calcium assays in cells follow changes in intracellular calcium, usually with a dye or a luminescent sensor.)

In the next experiment the target is T2, M1 muscarinic receptor (Homo sapiens, UniProt P11229).
T2 construct: expressed in transfected cells; host or cells: CHO (M1-CHO)
T2 sequence (P11229 1-460): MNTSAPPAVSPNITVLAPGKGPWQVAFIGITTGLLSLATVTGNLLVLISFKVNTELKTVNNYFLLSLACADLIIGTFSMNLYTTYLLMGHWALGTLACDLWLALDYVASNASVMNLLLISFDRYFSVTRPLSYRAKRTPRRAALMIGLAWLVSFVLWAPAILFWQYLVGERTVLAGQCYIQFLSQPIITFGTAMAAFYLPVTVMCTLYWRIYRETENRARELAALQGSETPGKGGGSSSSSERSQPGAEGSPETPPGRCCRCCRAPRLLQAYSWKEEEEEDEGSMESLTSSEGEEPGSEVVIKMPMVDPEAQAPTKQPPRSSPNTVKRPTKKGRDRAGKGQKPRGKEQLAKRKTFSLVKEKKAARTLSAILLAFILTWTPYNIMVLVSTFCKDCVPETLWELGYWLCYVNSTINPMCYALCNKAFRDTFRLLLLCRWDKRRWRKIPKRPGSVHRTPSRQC
Description: Functional mobilization of intracellular calcium (FLIPR), M1-CHO cells. Conditions: for Emax: 100% efficacy is the maximum response obtained with the Carbachol control; for M1 Activity: CHO cells expressing M1, calcium mobilization. The experiment is classed as cell-based. In short, it runs like this: as §1

Take `C#CCOC(=O)N1CCC(N2CCC3(CC2)CN(C(=O)N(C)C)c2ccccc23)CC1` [compound 92]: on M4 muscarinic receptor, the Emax is greater than 100% and the “M4 Activity” value was “+++ (activity was measured to be less than 2.0 μM)”. Further, at M1 muscarinic receptor, the Emax was greater than 100% and the “M1 Activity” value is listed as “+++ (activity was measured to be less than 2.0 μM)”.

`CCC#CCOC(=O)N1CCC(N2CCC3(CC2)CN(C(=O)N(C)C)c2ccccc23)CC1` [compound 93]: at M4 muscarinic receptor, the Emax was in the range of 25 to 100% and the “M4 Activity” value is given as “+++ (activity was measured to be less than 2.0 μM)”. For the same compound, at M1 muscarinic receptor, the Emax is 25 to 100% and the “M1 Activity” value is “+++ (activity was measured to be less than 2.0 μM)”.

As to `C#CCOC(=O)N1C2CCC1CC(N1CCC3(CC1)CN(C(=O)N(C)C)c1ccccc13)C2` (centres unmarked) [compound 94], on M4 muscarinic receptor, the Emax is 25 to 100% and the “M4 Activity” value was “+++ (activity was measured to be less than 2.0 μM)”. At M1 muscarinic receptor, the Emax was in the range of 25 to 100% and the “M1 Activity” value is listed as “+++ (activity was measured to be less than 2.0 μM)”.

Regarding `CC#CCOC(=O)N1C2CCC1CC(N1CCC3(CC1)CN(C(=O)N(C)C)c1ccccc13)C2` (centres unmarked) [compound 95], at M4 muscarinic receptor, the Emax lay in the range of 25 to 100% and the “M4 Activity” value is listed as “+++ (activity was measured to be less than 2.0 μM)”. At M1 muscarinic receptor, the Emax fell in the range of 25 to 100% and the “M1 Activity” value was “+++ (activity was measured to be less than 2.0 μM)”.

As to `CCOC(=O)N1CC[C@@H](CN2CCC3(CC2)CN(C(=O)N(C)C)c2ccccc23)C1` [compound 96], on M4 muscarinic receptor, the Emax was greater than 100% and the “M4 Activity” value is given as “+++ (activity was measured to be less than 2.0 μM)”. At M1 muscarinic receptor, the Emax was 25 to 100% and the “M1 Activity” value is listed as “+++ (activity was measured to be less than 2.0 μM)”.

As for `C#CCOC(=O)N1CC[C@@H](CN2CCC3(CC2)CN(C(=O)N(C)C)c2ccccc23)C1` [compound 97], at M4 muscarinic receptor, the Emax lay in the range of 25 to 100% and the “M4 Activity” value is reported as “+++ (activity was measured to be less than 2.0 μM)”. Besides, on M1 muscarinic receptor, the Emax was in the range of 25 to 100% and the “M1 Activity” value is “+++ (activity was measured to be less than 2.0 μM)”.

On to `CC#CCOC(=O)N1CC[C@@H](CN2CCC3(CC2)CN(C(=O)N(C)C)c2ccccc23)C1` [compound 98], for which, on M4 muscarinic receptor, the Emax lay within 25 to 100% and the “M4 Activity” value is recorded as “+++ (activity was measured to be less than 2.0 μM)”. Moreover, at M1 muscarinic receptor, the Emax lay in the range of 25 to 100% and the “M1 Activity” value is given as “+++ (activity was measured to be less than 2.0 μM)”.

As for `CCC#CCOC(=O)N1CC[C@@H](CN2CCC3(CC2)CN(C(=O)N(C)C)c2ccccc23)C1` [compound 99], on M4 muscarinic receptor, the Emax is greater than 100% and the “M4 Activity” value is “+++ (activity was measured to be less than 2.0 μM)”. Also, on M1 muscarinic receptor, the Emax lay within 25 to 100% and the “M1 Activity” value was “+++ (activity was measured to be less than 2.0 μM)”.

In the case of `C#CCOC(=O)N1CC[C@H](CN2CCC3(CC2)CN(C(=O)N(C)C)c2ccccc23)C1` [compound 100], on M4 muscarinic receptor, the Emax is 25 to 100% and the “M4 Activity” value is reported as “+++ (activity was measured to be less than 2.0 μM)”. In addition, at M1 muscarinic receptor, the Emax is 25 to 100% and the “M1 Activity” value is “+++ (activity was measured to be less than 2.0 μM)”.

`CC#CCOC(=O)N1CC[C@H](CN2CCC3(CC2)CN(C(=O)N(C)C)c2ccccc23)C1` [compound 101]: at M4 muscarinic receptor, the Emax was greater than 100% and the “M4 Activity” value is given as “+++ (activity was measured to be less than 2.0 μM)”. Besides, at M1 muscarinic receptor, the Emax lay in the range of 25 to 100% and the “M1 Activity” value is given as “+++ (activity was measured to be less than 2.0 μM)”.

With `CCC#CCOC(=O)N1CC[C@H](CN2CCC3(CC2)CN(C(=O)N(C)C)c2ccccc23)C1` [compound 102], on M4 muscarinic receptor, the Emax is greater than 100% and the “M4 Activity” value is on record as “+++ (activity was measured to be less than 2.0 μM)”. Further, at M1 muscarinic receptor, the Emax was 25 to 100% and the “M1 Activity” value was “+++ (activity was measured to be less than 2.0 μM)”.

For the compound `C#CCOC(=O)N1CCCC(N2CCC3(CC2)CN(C(=O)N(C)C)c2ccccc23)CC1` (centres unmarked) [compound 104], at M4 muscarinic receptor, the Emax was greater than 100% and the “M4 Activity” value is “+++ (activity was measured to be less than 2.0 μM)”. Further, on M1 muscarinic receptor, the Emax is greater than 100% and the “M1 Activity” value is reported as “+++ (activity was measured to be less than 2.0 μM)”.

For the compound `CC#CCOC(=O)N1CCCC(N2CCC3(CC2)CN(C(=O)N(C)C)c2ccccc23)CC1` (centres unmarked) [compound 105], on M4 muscarinic receptor, the Emax is greater than 100% and the “M4 Activity” value is “+++ (activity was measured to be less than 2.0 μM)”. Moreover, on M1 muscarinic receptor, the Emax was greater than 100% and the “M1 Activity” value was “+++ (activity was measured to be less than 2.0 μM)”.

Turning to `CCC#CCOC(=O)N1CCCC(N2CCC3(CC2)CN(C(=O)N(C)C)c2ccccc23)CC1` (centres unmarked) [compound 106], on M4 muscarinic receptor, the Emax lay in the range of 25 to 100% and the “M4 Activity” value is “+++ (activity was measured to be less than 2.0 μM)”. Moreover, on M1 muscarinic receptor, the Emax lay in the range of 25 to 100% and the “M1 Activity” value was “+++ (activity was measured to be less than 2.0 μM)”.

On to `CCOC(=O)N1CCCC(N2CCC3(CC2)CN(C(=O)N(C)C)c2ccccc23)CCC1` [compound 107], for which, on M4 muscarinic receptor, the Emax is greater than 100% and the “M4 Activity” value was “+++ (activity was measured to be less than 2.0 μM)”. On M1 muscarinic receptor, the Emax was greater than 100% and the “M1 Activity” value was “+++ (activity was measured to be less than 2.0 μM)”.

`CN(C)C(=O)N1CC2(CCN(C[C@H]3CCN(c4cnccn4)C3)CC2)c2ccccc21` [compound 108]: at M4 muscarinic receptor, the Emax was greater than 100% and the “M4 Activity” value is “+++ (activity was measured to be less than 2.0 μM)”. Further, on M1 muscarinic receptor, the Emax was in the range of 25 to 100% and the “M1 Activity” value is given as “+++ (activity was measured to be less than 2.0 μM)”.

In the case of `CN(C)C(=O)N1CC2(CCN(C[C@@H]3CCN(c4cnccn4)C3)CC2)c2ccccc21` [compound 109], on M4 muscarinic receptor, the Emax was greater than 100% and the “M4 Activity” value was “+++ (activity was measured to be less than 2.0 μM)”. Besides, at M1 muscarinic receptor, the Emax was in the range of 25 to 100% and the “M1 Activity” value is given as “+++ (activity was measured to be less than 2.0 μM)”.

For the compound `CN(C)C(=O)N1CC2(CCN(C[C@@H]3CCN(C(=O)OC4CCOC4)C3)CC2)c2ccccc21` (some centres unmarked) [compound 110], at M4 muscarinic receptor, the Emax was less than 25% and the “M4 Activity” value was “++ (activity was measured to be from 2.0 μM to 10.0 μM)”. At M1 muscarinic receptor, the Emax is less than 25% and the “M1 Activity” value is reported as “++ (activity was measured to be from 2.0 μM to 10.0 μM)”.

In the case of `CN(C)C(=O)N1CC2(CCN(C[C@H]3CCN(C(=O)OC4CCOC4)C3)CC2)c2ccccc21` (some centres unmarked) [compound 111], at M4 muscarinic receptor, the Emax was less than 25% and the “M4 Activity” value was “++ (activity was measured to be from 2.0 μM to 10.0 μM)”. On M1 muscarinic receptor, the Emax was less than 25% and the “M1 Activity” value is reported as “++ (activity was measured to be from 2.0 μM to 10.0 μM)”.

As to `CN(C)C(=O)N1CC2(CCN(C3CCC(c4ncns4)CC3)CC2)c2ccccc21` (centres unmarked) [compound 112], on M4 muscarinic receptor, the Emax is less than 25% and the “M4 Activity” value is reported as “+ (activity was measured to be greater than 10.0 μM)”. Further, on M1 muscarinic receptor, the Emax was less than 25% and the “M1 Activity” value is on record as “++ (activity was measured to be from 2.0 μM to 10.0 μM)”.

`CN(C)C(=O)N1CC2(CCN(C3CCN(c4cncc(-c5ccccc5O)n4)CC3)CC2)c2ccccc21` [compound 113]: at M4 muscarinic receptor, the Emax is less than 25% and the “M4 Activity” value is “+ (activity was measured to be greater than 10.0 μM)”. On M1 muscarinic receptor, the Emax was in the range of 25 to 100% and the “M1 Activity” value is on record as “+++ (activity was measured to be less than 2.0 μM)”.

Regarding `C=Cc1cncc(N2CCC(N3CCC4(CC3)CN(C(=O)N(C)C)c3ccccc34)CC2)n1` [compound 114], on M4 muscarinic receptor, the maximal effect (Emax) lay within 25 to 100% and the “M4 Activity” value is “+++ (activity was measured to be less than 2.0 μM)”. For the same compound, on M1 muscarinic receptor, the Emax was less than 25% and the “M1 Activity” value is “+ (activity was measured to be greater than 10.0 μM)”.

On to `Cc1nsc(N2CCC(C)(N3CCC4(CC3)CN(C(=O)N(C)C)c3ccccc34)CC2)n1` [compound 115], for which, at M4 muscarinic receptor, the Emax was less than 25% and the “M4 Activity” value is “+++ (activity was measured to be less than 2.0 μM)”. On M1 muscarinic receptor, the Emax was less than 25% and the “M1 Activity” value is listed as “+ (activity was measured to be greater than 10.0 μM)”.
